Experimental data reported in patent US20220175699A1, “CO[…]-CLEAVABLE A[…] AND […]” (Ensysce Biosciences, Inc., priority 2019, published 2022).
Like-named read-outs stand apart in the source and are kept apart here.

What was measured:
[1] = Plasma amphetamine following PO administration of d-amphetamine, Compound AM-9 and Vyvanse to dogs (Example 7); settings: male Beagle dogs, fasted
Method: (§1) Male Beagle dogs were fasted overnight through 4 hours postdose. Individual doses of amphetamine, AM-9 and Vyvanse were calculated based on body weights taken on the day of each dosing. The liquid formulations were administered via oral gavage, 4 per group. Prior to withdrawing the gavage tube, the tube was flushed with approximately 10 mL of water.
(§2) Blood (approximately 2 mL) was collected from each animal predose and at 0.167, 0.333, 0.5, 0.75, 1, 2, 3, 4, 6, and 8 hours postdose and processed for plasma. Plasma samples were evaluated for amphetamine by LC-MS-MS Mass spectrometer (API 5000 AB Sciex Instruments).

[2] = Plasma amphetamine following PO Compound AM-9 0.6 mg/kg to rats without and with trypsin inhibitor nafamostat (Example 8); format: in vivo
Method: This example provides a comparison of the immediate release of amphetamine into plasma when Compound AM-9 at a dosage of 0.6 mg/kg is administered PO to fasted rats alone, or with 0.1 and 0.25 mg/kg trypsin inhibitor Nafamostat.
(§3) The formulation was a clear solution. Animals were either fasted overnight through 4 hours postdose or fed ad lib prior to dosing, 4 animals per groups. […] The liquid formulation was administered via oral gavage at […].
FIG. 8A depicts the mean plasma concentration of amphetamine over 8 hours after administration of Compound AM-9 at doses of 0.6 mg/kg alone and in combination with 0.1 mg/kg of Nafamostat and 0.25 mg/kg of Nafamostat. FIG. 8B depicts the mean plasma concentration of amphetamine over the first 2 hours after administration of Compound AM-9 at doses of 0.6 mg/kg alone and in combination with 0.1 mg/kg of Nafamostat and 0.25 mg/kg of Nafamostat.

[3] = Plasma amphetamine following PO Compound AM-9 6 mg/kg to rats without and with trypsin inhibitor nafamostat (Example 9); format: in vivo; settings: fasted rats, PO Compound AM-9 6 mg/kg with 1, 2.5, 5 and 10 mg/kg Nafamostat vs alone
Method: This example provides a comparison of the immediate release of amphetamine into plasma when Compound AM-9 at a dosage of 6 mg/kg is administered PO to fasted rats alone, or with 1, 2.5, 5 and 10 mg/kg trypsin inhibitor Nafamostat.
as §3

[4] = rats, fasted, PO 27.7 mg/kg Compound AM-9
Method: Animals were fasted overnight through 4 hours postdose prior to dosing, 4 animals per groups. Individual doses of AM-9 was calculated based on body weights taken on the day of dosing. […] Prior to withdrawing the gavage tube, the tube was flushed with approximately 2 mL of water.
Blood was collected from a jugular vein into tubes containing K2EDTA anticoagulant. Blood (approximately 1 mL) was collected from each animal predose and at 0.167, 0.333, 0.5, 0.667, 0.833 1, 2, 4, 5, and 8 hours postdose and processed for plasma. Plasma samples were evaluated for AM-9 and amphetamine by LC-MS-MS Mass spectrometer (API 5000 AB Sciex Instruments).

[5] = male Beagle dogs, fasted, PO 0.4 mg/kg
Method: as §1, with “all amphetamine and” for “amphetamine,”, “(0.4 mg/kg)” for “and Vyvanse”
as §2

[6] = male Beagle dogs, fasted, PO Compound AM-9
Method: as §1, with “of” for “of amphetamine,”, “AM-9” for “AM-9 and Vyvanse”
Blood (approximately 2 mL) was collected from each animal predose and at 0.167, 0.333, 0.5, 0.75, 1, 2, 3, 4, 6, and 8 hours postdose and processed for plasma. Plasma samples were evaluated for AM-9 and amphetamine by LC-MS-MS Mass spectrometer (API 5000 AB Sciex Instruments).

[7] = rats, fasted, IV 5 mg/kg Compound AM-9
Method: Animals were fasted overnight through 4 hours postdose prior to dosing, 4 animals per groups. Individual doses of AM-9 was calculated based on body weights taken on the day of dosing.
Blood was collected from a jugular vein into tubes containing K2EDTA anticoagulant. Blood (approximately 1 mL) was collected from each animal predose and at 0.167, 0.333, 0.5, 0.667, 0.833 1, 2, 4, and 7 hours postdose and processed for plasma. Plasma samples were evaluated for either AM-9 or amphetamine by LC-MS-MS Mass spectrometer (API 5000 AB Sciex Instruments).

[8] = rats, fasted, IV 10 mg/kg Compound AM-9; 2, 15 and 60 min postdose
Method: The formulation was a clear solution. Animals were fasted overnight through 4 hours postdose prior to dosing, 4 animals per groups. Individual doses of AM-9 was calculated based on body weights taken on the day of dosing.
Blood was collected from a jugular vein into tubes containing K2EDTA anticoagulant. Blood (approximately 1 mL) was collected from each animal predose and at 2, 15 and 60 min postdose and processed for plasma. CSF was obtained at these same time periods. Plasma and CSF samples were evaluated for AM-9 by LC-MS-MS Mass spectrometer (API 5000 AB Sciex Instruments).

[9] = fasted rats, PO Compound AM-9 0.6 mg/kg with 0.1 and 0.25 mg/kg Nafamostat vs alone

## CS(=O)(=O)O.CS(=O)(=O)O.C[C@@H](Cc1ccccc1)NC(=O)[C@@H](N)CCCCN [Vyvanse, reference compound]
[1]
  Tmax for peak plasma amphetamine concentration: 2 h

## N=C(N)c1ccc2cc(OC(=O)c3ccc(N=C(N)N)cc3)ccc2c1 [Nafamostat, 6-carbamimidoylnaphthalen-2-yl 4-(diaminomethyleneamino)benzoate]
[2]; [9]
  effect on Cmax of amphetamine release from AM-9: reduces the Cmax
  effect on Tmax of amphetamine release from AM-9: increases the Tmax
[2]; rats, PO Compound AM-9 0.6 mg/kg alone and with 0.1 or 0.25 mg/kg Nafamostat, FIGS. 8A-8B
  effect on release of amphetamine from Compound AM-9 from oral administration: reduces the release of amphetamine
[3]
  effect on Cmax of amphetamine release from AM-9: reduces the Cmax
  effect on Tmax of amphetamine release from AM-9: increases the Tmax

## CC(=O)NCC(=O)N[C@@H](CCCNC(=N)N)C(=O)N[C@@H](C)Cc1ccccc1 [Compound AM-9, Amphetamine-arginine-glycine-acetate]
[4]
  conversion of administered AM-9 to amphetamine: majority of the administered AM-9 is immediately converted to amphetamine
  peak plasma concentration (Cmax) of AM-9 relative to peak plasma concentration of amphetamine: approximately half
[5]
  amphetamine Tmax (time to maximum plasma concentration) compared with administration of amphetamine: the same Tmax
[6]
  conversion of administered AM-9 to amphetamine: majority of the administered AM-9 is immediately converted to amphetamine
  peak plasma concentration of AM-9 relative to that of amphetamine: less than half
[1]
  Tmax for peak plasma concentration of amphetamine compared with direct administration of amphetamine: the same as that from direct administration of amphetamine
[7]
  conversion of AM-9 to amphetamine in the blood: very little conversion of AM-9 to amphetamine in the blood
[8]
  AM-9 crossing from plasma into the CSF: very little AM-9 that crosses from plasma into the CSF
